Assay results from patent US20240252508A1, “Novel glucose uptake inhibitors for use in the treatment of cancer” (NOVELYEAST BV, priority 2021, published 2024).

How the values were obtained:
[1] = system: tps1Δ cells; assay: Growth rescue of tps1Δ strain on glucose (growth curves, 2% galactose medium); format: cell-based, S. cerevisiae; conditions: 100 μM compound, 2.5 mM glucose
Outline: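 tps1Δ yeast pregrown in Complete Synthetic medium with 2% galactose, washed, resuspended to OD 0.1; compounds added 10 min before glucose. Growth followed as OD595 every 30 min at 30 °C in at least three technical replicates.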

[2] = system: A549 lung adenocarcinoma cells; assay: A549 cell proliferation / growth inhibition; format: cell-based, human; conditions: for Selected from primary screen for growth inhibition of A549 cells at 50 μM: 50 μM compound, 1 mM glucose; for Selected for having an IC50 ratio (10 mM glucose: 1 mM glucose) of A549 growth higher than WBC-A: IC50 on 10 mM vs 1 mM glucose, compared with WBC-A
Outline: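 A549 growth screened in RPMI with 1 mM glucose, compounds at 50 μM; cell number from counts of Hoechst-stained nuclei after 3 days. Growth curves also followed by IncuCyte phase-contrast confluency over 3–5 days (1000–1500 cells/well), DMSO ≤0.1%, ≥4 technical repeats.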

Row | Structure (SMILES) | Rescue of the tps1Δ strain on 2.5 mM glucose at 100 μM [1] | Selected from primary screen for growth inhibition of A549 cells at 50 μM [2] | Selected for having an IC50 ratio (10 mM glucose: 1 mM glucose) of A549 growth higher than WBC-A [2]
1 | Cc1nnc(Sc2nc(CN3CCOCC3)nc3scc(-c4cccs4)c23)n1C [6C] | No | Yes | Lower IC50 ratio
2 | OCCSc1nc(-c2cccs2)nc2scc(-c3ccccc3)c12 [23C] | No | Yes | Lower IC50 ratio
3 | Cc1nc(Sc2nnnn2-c2ccccc2C)c2c(-c3cccs3)csc2n1 [20C] | No | Yes | Lower IC50 ratio
4 | Cc1nc(S)c2c(-c3cccs3)csc2n1 [67A] | No | No | –
5 | Cc1nc(N(C)CC(=O)N2CCN(C)CC2)c2c(-c3cccs3)csc2n1 [10B] | No | No | –
6 | CCN(CC)Cc1nc(Sc2nnc(C3CC3)n2CCC(N)=O)c2c(C)c(C)sc2n1 [66A] | No | No | –
7 | Cc1sc2ncnc(Sc3nnc(Cc4cccs4)n3C)c2c1C [12A] | No | No | –
8 | CCN(CC)CCSc1nc(C)nc2sc3c(c12)CCC3 [33C] | No | Yes | Lower IC50 ratio
9 | COCc1nc(Sc2nnc(CN)n2C)c2c(-c3ccccc3)csc2n1 [40A] | No | No | –
10 | Cc1nc(SCC(=O)N2CCOCC2)c2c3c(sc2n1)CCC3 [65C] | No | No | –
11 | Cc1nc(SCC(=O)Nc2cc(C)on2)c2c(-c3cccs3)csc2n1 [10C] | Yes | Yes | Lower IC50 ratio
12 | CSc1nnc(Sc2nc(C)nc3scc(-c4cccs4)c23)s1 [29A] | No | No | –
13 | Cc1nc(SCC(=O)N(C)Cc2ccco2)c2c(-c3cccs3)csc2n1 [27B] | No | No | –
14 | CCOC(=O)CSc1nnc(C)c2cnn(-c3ccccc3)c12 [74C] | No | No | –
15 | Cc1ccc(-c2csc3ncnc(SCC(=O)N(C)Cc4ccc(C)o4)c23)cc1 [2B] | No | Yes | Lower IC50 ratio
16 | COC(=O)CSc1nc(CN2CCOCC2)nc2scc(-c3cccs3)c12 [37B] | No | No | –
17 | Cc1nc(Sc2nnc3sc4ccccc4n23)c2c3c(sc2n1)CCCC3 [51C] | No | No | –
18 | CC(=O)N(c1nnc(Sc2nc(C)nc3scc(-c4cccs4)c23)s1)C1CC1 [39C] | No | No | –
19 | Cc1nc(Sc2nnnn2C2CC2)c2c(-c3ccccc3)csc2n1 [56A] | No | Yes | Lower IC50 ratio
20 | CCCc1nnc(Sc2nc(C)nc3scc(-c4cccs4)c23)[nH]1 [50C] | Yes | Yes | Lower IC50 ratio
21 | Cc1sc2nc(-c3cccnc3)nc(SCCO)c2c1-c1ccccc1 [13C] | No | Yes | Lower IC50 ratio

Row | Structure (SMILES) | Rescue of the tps1Δ strain on 2.5 mM glucose at 100 μM [1] | Selected from primary screen for growth inhibition of A549 cells at 50 μM [2] | Selected for having an IC50 ratio (10 mM glucose: 1 mM glucose) of A549 growth higher than WBC-A [2]
22 | Cc1nc(SCC(=O)N2CCOCC2)c2c(C)c(C)sc2n1 [47C] | No | No | –
23 | Cc1nc(Sc2nnc(C3CC3)n2C2CC2)c2c(-c3cccs3)csc2n1 [58C] | No | No | –
24 | Cc1nc(SCC(=O)N2CCOCC2)c2ccsc2n1 [78C] | No | No | –
25 | Cc1nc(SCC(=O)OC(C)(C)C)c2c3c(sc2n1)CCCC3 [31C] | No | No | –
26 | CCN(CC)CCSc1ncnc2scc(-c3ccccc3)c12 [36C] | No | Yes | Lower IC50 ratio
27 | c1ccc2c(c1)sc1nnc(Sc3ncnc4sc5c(c34)CCCC5)n12 [62A] | No | No | –
28 | Cc1nc(SCCN2CCOC2=O)c2c(-c3cccs3)csc2n1 [26C] | Yes | No | –
29 | Nc1nc(CSc2nnc3n2CCCCC3)nc2sc3c(c12)CCCCC3 [35A] | No | Yes | Lower IC50 ratio
30 | CCOC(=O)CNC(=O)CSc1nnc(C)c2cnn(-c3ccccc3)c12 [73C] | No | No | –
31 | Cc1nc(SCC(=O)NC(=O)NCCC(C)C)c2c(-c3cccs3)csc2n1 [49B] | No | Yes | Lower IC50 ratio
32 | O=c1ccnc(Sc2nc(CN3CCOCC3)nc3scc(-c4cccs4)c23)[nH]1 [7A] | No | No | –
33 | CCNc1nnc(Sc2nc(C)nc3scc(-c4cccs4)c23)s1 [46C] | No | No | –
34 | c1nc(Sc2nnc3n2CCCCC3)c2c3c(sc2n1)CCCC3 [65A] | No | No | –
35 | COc1ccc(-c2csc3nc(C)nc(Sc4nccn4C)c23)cc1OC [42A] | No | Yes | Lower IC50 ratio
36 | CC(=O)Nc1ccc(C(=O)CSc2nc(C)nc3scc(-c4cccs4)c23)cc1 [17B] | No | Yes | Higher IC50 ratio, but false-positive
37 | Cc1nc(Sc2nnnn2Cc2ccco2)c2c(-c3cccs3)csc2n1 [35C] | No | Yes | Lower IC50 ratio
38 | Cc1sc2ncnc(Sc3nnc4n3CCCCC4)c2c1C [64A] | No | No | –
39 | Cc1nnc(Sc2ncnc3scc(-c4ccccc4)c23)n1C [19A] | No | No | –
40 | c1ccn2c(Sc3ncnc4sccc34)nnc2c1 [46A] | No | No | –
41 | Cc1ccc(-c2csc3ncnc(Sc4nnnn4C)c23)cc1 [57A] | No | Yes | Lower IC50 ratio
